Laboratory results taken from PMC11758220, “Identification of a Privileged Scaffold for Inhibition of Sterol Transport Proteins through the Synthesis and Ring Distortion of Diverse, Pseudo-Natural Products” (ACS Central Science, 2025).

How the values were obtained:
STARD4 = molecular target: T1, STARD4 (Homo sapiens, UniProt Q96DR4, C75S); test: Differential scanning fluorimetry (DSF), STARD4; type: binding; conditions: single dose, Dose = 10 µM
T1 construct: STARD4(2-205; C75S); made in house; host or cells: E. coli BL21(DE3)
T1 sequence (Q96DR4 2-205 C75S): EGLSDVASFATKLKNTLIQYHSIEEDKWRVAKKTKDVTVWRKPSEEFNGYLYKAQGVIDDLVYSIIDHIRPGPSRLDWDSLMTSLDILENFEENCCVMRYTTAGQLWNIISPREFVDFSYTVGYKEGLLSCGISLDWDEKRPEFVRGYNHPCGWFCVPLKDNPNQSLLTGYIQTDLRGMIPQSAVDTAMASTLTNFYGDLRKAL
Description: (§1) Protein expression constructs
(§2) Human ASTER domains of Aster-A(359-547), -B(364-552) and -C(318-504) were subcloned into a pGEX-6p-2rbs vector, thus introducing the cloning artifact ‘GPLGS’.3 The pGEX-6P-1-GST-OSBP(377- […]
(§3) a gift from James H. Hurley (University of California).4 The pHIS_2His6_Thrombin_STARD4(2-205;C75S) plasmid was a gift from Young Jun Im (Chonnam National University).5 STARD5A was a gift from Nicola Burgess-Brown (Addgene plasmid #42392; http://n2t.net/addgene:42392; […]
(§4) Protein expression and purification […]
(§5) vectors including an N-terminal PreScission-cleavable glutathione S-transferase (GST)-tag were expressed in Escherichia coli (E. coli) OverExpress C41 in Terrific Broth (TB) medium for 16 h at 18 °C after the induction with 0.1 mM isopropyl β-D-1-thiogalactopyranoside (IPTG). Cells were harvested at 3500 × g for 15 minutes and lysed by sonication in buffer containing 50 mM HEPES pH 7.5, 300 mM NaCl, 10 %v/v glycerol, 5 mM dithiothreitol (DTT), 0.1 %v/v Triton X-100 and protease inhibitor mix HP plus (Serva). The lysate was purified by affinity chromatography on a GSTrap FF column (Cytiva) using an ÄKTA Start (Cytiva) in buffer containing 50 mM HEPES pH 7.5, 300 mM NaCl, 10 %v/v glycerol, 5 mM DTT and 0.01 %v/v Triton X-100. The GST-tag was cleaved overnight on the column at 4 °C. The Aster sterol binding domains were further purified by size-exclusion chromatography (SEC) on a HiLoad 16/600 Superdex 75 pg (Cytiva) in buffer containing 20 mM HEPES pH 7.5, 300 mM NaCl, 10 %v/v […]
(§6) STARD5(6-213) harboring an N-terminal His6-Tag were expressed in E. coli BL21(DE3) in Luria-Bertani Broth (LB) medium for approximately 16 h at 18 °C after induction with 0.15 mM IPTG. Cells were harvested at 3500 × g for 15 minutes and lysed by sonication in buffer containing 50 mM HEPES pH 7.5, 150 mM NaCl, 5 %v/v glycerol, 5 mM DTT, 0.1 %v/v Triton X -100 and ethylenediaminetetraacetic acid (EDTA)-free protease inhibitor cocktail (Sigma-Aldrich). The cleared lysate was purified by affinity chromatography on a Ni-NTA Superflow Cartridge (Qiagen) using an ÄKTA Start (Cytiva) in buffer containing 50 mM HEPES pH 7.5, 150 mM NaCl, 5 %v/v glycerol, 5 mM DTT. START domains were eluted by using elution buffer containing 50 mM HEPES pH 7.5, 150 mM NaCl, 5 %v/v glycerol, 5 mM DTT and 500 mM imidazole. Proteins were further purified by SEC on a HiLoad 16/600 Superdex 75 pg (Cytiva) in buffer containing 20 mM HEPES pH 7.5, 150 mM NaCl, 5 %v/v glycerol and 2 mM DTT.
(§7) The ORP domain of human OSBP(377-807) in the pGEX-6p-1 vector with an N-terminal PreScission-cleavable GST-tag was expressed in E. coli OverExpress C41 in LB medium for 16 h at 18 °C after induction with 0.1 mM IPTG. Cells were harvested at 3500 × g for 15 minutes and lysed by sonication in buffer containing 20 mM HEPES pH 7.5, 300 mM NaCl, 10 %v/v glycerol, 5 mM DTT, 0.1 %v/v Triton X-100 and EDTA-free protease inhibitor cocktail (Sigma-Aldrich). The cleared lysate was purified by affinity chromatography on a GSTrap HF column (Cytiva) using an ÄKTA Start (Cytiva) in buffer containing 20 mM HEPES pH 7.5, 300 mM NaCl, 10 %v/v glycerol, 5 mM DTT. OSBP(377 -807) was eluted by using elution buffer containing 20 mM HEPES pH 7.5, 300 mM NaCl, 10 %v/v glycerol, 5 mM DTT and 10 mM reduced glutathione. Proteins were further purified by SEC on a HiLoad 16/600 Superdex 75 pg (Cytiva) using an ÄKTA Explorer (Cytiva) in buffer containing 20 mM HEPES pH 7.5, 150 mM NaCl, 10 %v/v glycerol and 2 mM DTT.
(§8) The ORP domains of human ORP1(534-950) in pET24b(+) and ORP2(49-480) in the pET24b(+) vector including an N-terminal His6-Tag were expressed in E. coli BL21(DE3) in TB medium for approximately 16 h at 18 °C after induction with 0.1 mM IPTG. Cells were collected at 3500 × g for 15 minutes and lysed by sonification in buffer containing 10 mM Tris-HCl pH 8, 300 mM NaCl, 5 % glycerol, 2 mM DTT, 0.1 % Triton X-100 and EDTA-free protease inhibitor cocktail (Sigma-Aldrich). The cleared […]

ORP2 = molecular target: T2, ORP2 (Homo sapiens, UniProt Q9H1P3); test: Fluorescence polarisation (FP) competition with NBD-cholesterol, ORP2; type: binding; conditions: for ORP2 (FP) inhibition / inhibition at 10 µM: single dose, Dose = 10 µM
T2 construct: ORP2(49-480); host or cells: E. coli BL21(DE3)
T2 sequence (Q9H1P3 49-480): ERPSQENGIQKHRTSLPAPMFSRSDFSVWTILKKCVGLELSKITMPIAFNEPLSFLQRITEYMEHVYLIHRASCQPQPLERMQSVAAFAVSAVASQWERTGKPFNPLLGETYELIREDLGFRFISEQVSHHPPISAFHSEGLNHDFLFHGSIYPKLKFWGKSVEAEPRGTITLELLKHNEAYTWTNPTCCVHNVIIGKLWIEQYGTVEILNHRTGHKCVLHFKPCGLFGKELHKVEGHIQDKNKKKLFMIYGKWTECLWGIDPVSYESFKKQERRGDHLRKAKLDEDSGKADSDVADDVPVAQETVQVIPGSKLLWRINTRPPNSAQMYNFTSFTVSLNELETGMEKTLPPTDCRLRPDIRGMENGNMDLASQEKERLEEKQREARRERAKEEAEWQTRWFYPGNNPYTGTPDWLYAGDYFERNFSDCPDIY
Description: as §1, §2, §3, §4, §5, §6, §7, §8

Structure (SMILES)	STARD4 (DSF) ΔTm (STARD4)	ORP2 (FP) inhibition (ORP2)	ΔTm at 10 µM (STARD4)	inhibition at 10 µM (ORP2)	IC50 (ORP2; mean of three experiments run in technical duplicates)
Cc1nc2c(s1)CC[C@@H]1C[C@H](O)CC[C@]21C [Compound 8b]	0.0902 °C	13%	–	–	–
C[C@]12CC[C@@H](O)C[C@H]1CCc1sc(-c3cccnc3)nc12 [Compound 8c]	0.173 °C	17%	–	–	–
COc1ccc(-c2nc3c(s2)CC[C@@H]2C[C@H](O)CC[C@]32C)cc1 [Compound 8d]	–	–	0.3 °C	38%	–
C[C@]12CC[C@@H](O)C[C@H]1CCc1sc(-c3ccc(F)cc3)nc12 [Compound 8e]	0.7 °C	25%	–	–	–
C[C@]12CC[C@@H](O)C[C@H]1CCc1[nH]c(-c3ccccc3)nc12 [Compound 9]	–	–	-0.0502 °C	3.5%	–
C[C@]12CC[C@@H](O)C[C@H]1CCc1c2[nH]c2ccccc12 [Compound 10a]	0.0293 °C	34%	–	–	–
C[C@]12CC[C@@H](O)C[C@H]1CCc1c2[nH]c2ccc(Br)cc12 [Compound 10b]	0.2 °C	21%	–	–	–
C[C@]12CC[C@@H](O)C[C@H]1CCc1c2[nH]c2ccc(Cl)cc12 [Compound 10c]	0.284 °C	32%	–	–	–
C[C@]12CC[C@@H](O)C[C@H]1CCc1c2[nH]c2ccc(F)cc12 [Compound 10d]	0.167 °C	42%	–	–	–
Cc1ccc2[nH]c3c(c2c1)CC[C@@H]1C[C@H](O)CC[C@]31C [Compound 10e]	–	–	0.284 °C	50.6%	–
COc1ccc2[nH]c3c(c2c1)CC[C@@H]1C[C@H](O)CC[C@]31C [Compound 10f]	–	–	0.0284 °C	36.5%	–
CC12CCC(O)CC1CCc1c2[nH]c2ccc(C(F)(F)F)cc12 (stereo not shown) [Compound 10g]	–	–	0.00665 °C	57.7%	–
C[C@]12CC[C@@H](O)C[C@H]1CCc1c2[nH]c2ccc(I)cc12 [Compound 10h]	-0.0169 °C	63.5%	–	–	–
C[C@]12CC[C@@H](O)C[C@H]1CCc1c2[nH]c2c(F)cc(Cl)cc12 [Compound 10i]	–	–	0.441 °C	20%	–
Cc1cc(C)c2c3c([nH]c2c1)[C@@]1(C)CC[C@@H](O)C[C@H]1CC3 [Compound 10j]	–	–	-0.144 °C	15%	–
CCOC(=O)c1ccc2[nH]c3c(c2c1)CC[C@@H]1C[C@H](O)CC[C@]31C [Compound 10k]	-0.04 °C	11%	–	–	–
C[C@]12CC[C@@H](O)C[C@H]1CCC(=O)c1ccccc1NC2=O [Compound 11a]	-0.0281 °C	6%	–	–	–
C[C@]12CC[C@@H](O)C[C@H]1CCC(=O)c1cc(Br)ccc1NC2=O [Compound 11b]	–	–	0.126 °C	2%	–
Cc1ccc2c(c1)C(=O)CC[C@@H]1C[C@H](O)CC[C@]1(C)C(=O)N2 [Compound 11c]	–	–	-0.0446 °C	-1%	–
COc1ccc2c(c1)C(=O)CC[C@@H]1C[C@H](O)CC[C@]1(C)C(=O)N2 [Compound 11d]	–	–	-0.0249 °C	11%	–
C[C@]12CC[C@@H](O)C[C@H]1CCC(=O)c1cc(C(F)(F)F)ccc1NC2=O [Compound 11e]	–	–	-0.0316 °C	5%	–
C[C@]12CC[C@@H](O)C[C@H]1CCC(=O)c1cc(Cl)cc(F)c1NC2=O [Compound 11f]	-0.0242 °C	7%	–	–	–
Cc1cc(C)c2c(c1)NC(=O)[C@@]1(C)CC[C@@H](O)C[C@H]1CCC2=O [Compound 11g]	–	–	0.464 °C	-1%	–
Cc1ccc2[nH]c3c(c(=O)c2c1)C[C@@H]1C[C@H](O)CC[C@]31C [Compound 12]	–	–	-0.0238 °C	5%	–
Cc1ccc2c(c1)[C@]1(O)CC[C@@H]3C[C@H](O)CC[C@]3(C)C1=N2 [Compound 14a]	–	–	0.8 °C	53%	–
COc1ccc2c(c1)[C@]1(O)CC[C@@H]3C[C@H](O)CC[C@]3(C)C1=N2 [Compound 14b]	–	–	-0.1 °C	25%	–
Cc1cc(C)c2c(c1)N=C1[C@@]2(O)CC[C@@H]2C[C@H](O)CC[C@]12C [Compound 14c]	–	–	-0.0123 °C	11%	–
C[C@]12CC[C@@H]3C[C@H]1CC[C@@]21C(=Nc2ccccc21)O3 [Compound 15a]	–	–	0.9 °C	25%	–
CC12CCC3CC1CCC21C(=Nc2ccc(Cl)cc21)O3 (stereo not shown) [Compound 15c]	–	–	1.5 °C	47%	22.2 µM
C[C@]12CC[C@@H]3C[C@H]1CC[C@@]21C(=Nc2ccc(F)cc21)O3 [Compound 15d]	–	–	1.3 °C	25%	–
